According to patent publication EP0641858A1, “SERUM CALCIUM DEPRESSING FACTOR” (Chugai Seiyaku Kabushiki Kaisha, priority 1991, dated 1992):
Blank lines part the entries; values can stand above or below the compound they belong to. Non-standard residues stand in square brackets, D forms with d. Residues, ends and D or L forms follow the SMILES beside them. *: point of attachment. Sta = CC(C)C[C@H](N)[C@@H](O)CC(=O)O; Isovaleryl = CC(C)CC(=O)*

Legend:
[1] = biological target: T1, serum calcium decreasing factor of pig origin (from porcine pancreas), N-terminal sequence SEQ ID NO: 1 (Sus scrofa, UniProt F1SUW2, E34Q/S46R); test: Effect of protease inhibitors on protease activity (azo-casein substrate, OD at 340 nm); format: biochemical
T1 sequence (F1SUW2 30-268 E34Q/S46R): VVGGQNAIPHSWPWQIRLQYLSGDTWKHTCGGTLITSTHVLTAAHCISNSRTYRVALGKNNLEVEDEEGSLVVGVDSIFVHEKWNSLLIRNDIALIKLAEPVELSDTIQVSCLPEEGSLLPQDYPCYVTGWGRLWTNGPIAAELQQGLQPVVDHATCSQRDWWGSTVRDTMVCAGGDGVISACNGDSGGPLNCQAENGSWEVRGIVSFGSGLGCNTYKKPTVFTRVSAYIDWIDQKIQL
Method: In steps of the purification, since it was observed that a fragment which was assumed to be a degraded fragment of the serum calcium decreasing factor protein, was generated, it is assumed that this serum calcium decreasing factor has proteolytic activity. An effect of various protease inhibitors against the serum calcium decreasing factor protein of this invention was tested as follows: 1 mg/ml azo-casein was used as a substrate, incubation was conducted at temperature of 37°C for 30 min in 0.25 ml, 1 ml of 5% trichloroacetic acid was added thereto, and then the supernatant from centrifugation of the reaction products was measured for OD at 340 nm. The resulting value was used as proteolytic activity. The effect of each protease inhibitor is shown based upon a percentage where proteolytic activity of a control sample without the inhibitor is 100%.
The protease inhibitors used include phenylmethansulfonyl fluoride (PMSF), which is a serin-protease inhibitor; (4-amidinophenyl)-methanesulfonyl fluoride (APMSF), which is a trypsin-type serin-protease inhibitor; leupetin, which is a trypsin-type serin-protease-thiolprotease inhibitor; chymostatin, which is a chymotrypsin-type serinprotease inhibitor; N-[N-3-trans-carboxyoxirane-2-carbonyl)-L-leucyl]agmatine (E-64), which is a thiolprotease inhibitor; pepstatin, which is an acid protease inhibitor; trypsin inhibitors which are inhibitors of trypsin, Xa-factor, plasmin and plasmakallikrein; and aprotinin, which is an inhibitor of trypsin and kallikrein.

[2] = Serum calcium lowering in mice, in vivo assay; details: PMSF alone administered to mice (control of Fig. 5)
Method: Male BALB/c mice of 4 to 6 weeks old were starved for 18 hours and 0.1M Tris-HCl buffer (pH 7.5) or 0.1M Tris-HCl buffer containing each of the three peaks dissolved therein was administered through a mouse tail vein at a dose of 100 µl per 20g of the body weight. After 4 hours, blood was drawn from the heart under ether anesthesia and serum was obtained. The serum calcium concentration was measured according to the orth-cresol phthalein complexion method.
Next, lowering of serum calcium concentration by serum calcium decreasing factor in an in vivo assay on mice was tested using serum calcium decreasing factor treated with PMSF and non-treated serum calcium decreasing factor. In the figure, open circles show the result of non-treated serum calcium decreasing factor, closed circles show the result of serum calcium decreasing factor treated with PMSF, and closed boxes show the result (control) wherein PMSF alone was administrated in an amount provided when serum calcium decreasing factor was administrated in an amount shown on the absissa.

[3] = inhibitor 100 µM, 1 mg/ml azo-casein, 37°C, 30 min, control without inhibitor = 100%, read-out: Activity of Protease (per Activity of Control%)

SMILES: O=S(=O)(F)Cc1ccccc1 [PMSF, phenylmethansulfonyl fluoride]
inhibition of protease activity (in words) ([1]; inhibitor 1 mM): inhibited
Activity of Protease (per Activity of Control%) ([1]; inhibitor 1 mM, 1 mg/ml azo-casein, 37°C, 30 min, control without inhibitor = 100%): 8.8%
lowering of serum calcium [2]: did not lower serum calcium

SMILES: N=C(N)c1ccc(CS(=O)(=O)F)cc1 [APMSF, (4-amidinophenyl)-methanesulfonyl fluoride]
inhibition of protease activity (in words) ([1]; inhibitor 50 µM): not being inhibited
Activity of Protease (per Activity of Control%) ([1]; inhibitor 50 µM, 1 mg/ml azo-casein, 37°C, 30 min, control without inhibitor = 100%): 107.0%

SMILES: CC(C)C[C@H](NC(=O)[C@@H](NC(=O)N[C@@H](Cc1ccccc1)C(=O)O)[C@@H]1CCN=C(N)N1)C(=O)N[C@H](C=O)Cc1ccccc1 [Chymostatin]
inhibition of protease activity (in words) ([1]; inhibitor 100 µM): inhibited
remaining activity at 100 µM [1, 3]: 16.1%

SMILES: CC(C)CC(=O)N[C@H](C(=O)N[C@H](C(=O)N[C@@H](CC(C)C)[C@@H](O)CC(=O)N[C@@H](C)C(=O)N[C@@H](CC(C)C)[C@@H](O)CC(=O)O)C(C)C)C(C)C [Pepstatin] (Isovaleryl-VV[Sta]A[Sta]-OH)
inhibition of protease activity (in words) ([1]; inhibitor 100 µM): partially inhibited
remaining activity at 100 µM [1, 3]: 67.9%

inhibition of protease activity (in words) ([1]; inhibitor 2.5 µg/ml): not being inhibited
remaining activity at 2.5 µg/mL ([1]; inhibitor 2.5 µg/ml, 1 mg/ml azo-casein, 37°C, 30 min, control without inhibitor = 100%, read-out: Activity of Protease (per Activity of Control%)): 108%
SMILES: CC(C)CC(NC(=O)C1OC1C(=O)O)C(=O)NCCCCN=C(N)N [E-64, N-[N-3-trans-carboxyoxirane-2-carbonyl)-L-leucyl]agmatine]

SMILES: CC(=O)N[C@@H](CC(C)C)C(=O)N[C@@H](CC(C)C)C(=O)N[C@H](C=O)CCCNC(=N)N [Leupeptin]
inhibition of protease activity (in words) ([1]; inhibitor 100 µM): partially inhibited
remaining activity at 100 µM [1, 3]: 86.8%
